Results: US9006250B2, “4-amino-6-(heterocyclic)picolinates and 6-amino-2-(heterocyclic)pyrimidine-4-carboxylates and their use as herbicides” (Dow AgroSciences, LLC, priority 2013, dated 2015)

Columns and labels:
Experiment in all cases: Post-Emergent Test II herbicidal activity
Type in all cases: in vivo
[1] = tested on: CHEAL: lambsquarters (Chenopodium album); conditions: post-emergence, 336 h, 14 days, read-out: Visual Growth Reduction (%) 14 Days After Application CHEAL; for pest or weed control at 35 g/ha: 35 g ai/ha; for pest or weed control at 70 g/ha: 70 g ai/ha; for pest or weed control at 140 g/ha: 140 g ai/ha
Experimental: (§1) Post-Emergent Test II: Seeds or nutlets of the desired test plant species were planted in Sun Gro Metro-Mix® 360 planting mixture, which typically has a pH of 6.0 to 6.8 and an organic matter content of about 30 percent, in plastic pots with a surface area of 64 square centimeters. When required to ensure good germination and healthy plants, a fungicide treatment and/or other chemical or physical treatment was applied. The plants were grown for 7-21 d in a greenhouse with an approximate 15 h photoperiod which was maintained at about 23-29° C. during the day and 22-28° C. during the night. Nutrients and water were added on a regular basis and supplemental lighting was provided with overhead metal halide 1000-Watt lamps as necessary. The plants were employed for testing when they reached the first or second true leaf stage.
(§2) A weighed amount, determined by the highest rate to be tested, of each test compound was placed in a 25 mL glass vial and was dissolved in 4 mL of a 97:3 v/v mixture of acetone and DMSO to obtain concentrated stock solutions. […] The concentrated stock solutions obtained were diluted with 20 mL of an aqueous mixture containing acetone, water, isopropyl alcohol, DMSO, Atplus 411F crop oil concentrate, and Triton® X-155 surfactant in a 48.5:39:10:1.5:1.0:0.02 v/v ratio to obtain spray solutions containing the highest application rates. Additional application rates were obtained by serial dilution of 12 mL of the high rate solution into a solution containing 2 mL of 97:3 v/v mixture of acetone and DMSO and 10 mL of an aqueous mixture containing acetone, water, isopropyl alcohol, DMSO, Atplus 411F crop oil concentrate, and Triton X®-155 surfactant in a 48.5:39:10:1.5:1.0:0.02 v/v ratio to obtain ½×, ¼×, ⅛× and 1/16× rates of the high rate. Compound requirements are based upon a 12 mL application volume at a rate of 187 liters per hectare (L/ha). Formulated compounds were applied to the plant material with an overhead Mandel track sprayer equipped with 8002E nozzles calibrated to deliver 187 L/ha over an application area of 0.503 square meters at a spray height of 18 inches […] above the average plant canopy height. Control plants were sprayed in the same manner with the solvent blank.
(§3) The treated plants and control plants were placed in a greenhouse as described above and watered by subirrigation to prevent wash-off of the test compounds. After 14 d, the condition of the test plants as compared with that of the untreated plants was determined visually and scored on a scale of 0 to 100 percent where 0 corresponds to no injury and 100 corresponds to complete kill.

[2] = tested on: TRZAS: wheat, spring (Triticum aestivum); conditions: post-emergence, 336 h, 14 days, read-out: Visual Growth Reduction (%) 14 Days After Application TRZAS; for pest or weed control at 35 g/ha: 35 g ai/ha; for pest or weed control at 70 g/ha: 70 g ai/ha; for pest or weed control at 140 g/ha: 140 g ai/ha
Experimental: as §1, §2, §3

[3] = tested on: ABUTH: velvetleaf (Abutilon theophrasti); conditions: post-emergence, 336 h, 14 days, read-out: Visual Growth Reduction (%) 14 Days After Application ABUTH; for pest or weed control at 35 g/ha: 35 g ai/ha; for pest or weed control at 70 g/ha: 70 g ai/ha; for pest or weed control at 140 g/ha: 140 g ai/ha
Experimental: as §1, §2, §3

[4] = tested on: EPHHL: wild poinsettia (Euphorbia heterophylla); conditions: post-emergence, 336 h, 14 days, read-out: Visual Growth Reduction (%) 14 Days After Application EPHHL; for pest or weed control at 35 g/ha: 35 g ai/ha; for pest or weed control at 70 g/ha: 70 g ai/ha; for pest or weed control at 140 g/ha: 140 g ai/ha
Experimental: as §1, §2, §3

[5] = tested on: CYPES: yellow nutsedge (Cyperus esculentus); conditions: post-emergence, 336 h, 14 days, read-out: Visual Growth Reduction (%) 14 Days After Application CYPES; for pest or weed control at 35 g/ha: 35 g ai/ha; for pest or weed control at 70 g/ha: 70 g ai/ha; for pest or weed control at 140 g/ha: 140 g ai/ha
Experimental: as §1, §2, §3

[6] = tested on: ECHCG: barnyardgrass (Echinochloa crus-galli); conditions: post-emergence, 336 h, 14 days, read-out: Visual Growth Reduction (%) 14 Days After Application ECHCG; for pest or weed control at 35 g/ha: 35 g ai/ha; for pest or weed control at 70 g/ha: 70 g ai/ha; for pest or weed control at 140 g/ha: 140 g ai/ha
Experimental: as §1, §2, §3

[7] = tested on: SETFA: giant foxtail (Setaria faberi); conditions: post-emergence, 336 h, 14 days, read-out: Visual Growth Reduction (%) 14 Days After Application SETFA; for pest or weed control at 35 g/ha: 35 g ai/ha; for pest or weed control at 70 g/ha: 70 g ai/ha; for pest or weed control at 140 g/ha: 140 g ai/ha
Experimental: as §1, §2, §3

[8] = tested on: BRSNN: oilseed rape, canola (Brassica napus); conditions: post-emergence, 336 h, 14 days, read-out: Visual Growth Reduction (%) 14 Days After Application BRSNN; for pest or weed control at 35 g/ha: 35 g ai/ha; for pest or weed control at 70 g/ha: 70 g ai/ha; for pest or weed control at 140 g/ha: 140 g ai/ha
Experimental: as §1, §2, §3

[9] = tested on: ORYSA: rice (Oryza sativa); conditions: post-emergence, 336 h, 14 days, read-out: Visual Growth Reduction (%) 14 Days After Application ORYSA; for pest or weed control at 35 g/ha: 35 g ai/ha; for pest or weed control at 70 g/ha: 70 g ai/ha; for pest or weed control at 140 g/ha: 140 g ai/ha
Experimental: as §1, §2, §3

[10] = tested on: AMARE: redroot pigweed (Amaranthus retroflexus); conditions: post-emergence, 336 h, 14 days, read-out: Visual Growth Reduction (%) 14 Days After Application AMARE; for pest or weed control at 35 g/ha: 35 g ai/ha; for pest or weed control at 70 g/ha: 70 g ai/ha; for pest or weed control at 140 g/ha: 140 g ai/ha
Experimental: as §1, §2, §3

[11] = tested on: HELAN: sunflower (Helianthus annuus); conditions: post-emergence, 336 h, 14 days, read-out: Visual Growth Reduction (%) 14 Days After Application HELAN; for pest or weed control at 35 g/ha: 35 g ai/ha; for pest or weed control at 70 g/ha: 70 g ai/ha; for pest or weed control at 140 g/ha: 140 g ai/ha
Experimental: as §1, §2, §3

[12] = tested on: ZEAMX: maize, corn (Zea mays); conditions: post-emergence, 336 h, 14 days, read-out: Visual Growth Reduction (%) 14 Days After Application ZEAMX; for pest or weed control at 35 g/ha: 35 g ai/ha; for pest or weed control at 70 g/ha: 70 g ai/ha; for pest or weed control at 140 g/ha: 140 g ai/ha
Experimental: as §1, §2, §3

Compound | pest or weed control at 35 g/ha [1] [%] | pest or weed control at 70 g/ha [1] [%] | pest or weed control at 140 g/ha [1] [%] | pest or weed control at 35 g/ha [2] [%] | pest or weed control at 70 g/ha [2] [%] | pest or weed control at 140 g/ha [2] [%] | pest or weed control at 35 g/ha [3] [%] | pest or weed control at 70 g/ha [3] [%] | pest or weed control at 140 g/ha [3] [%] | pest or weed control at 35 g/ha [4] [%] | pest or weed control at 70 g/ha [4] [%] | pest or weed control at 140 g/ha [4] [%] | pest or weed control at 35 g/ha [5] [%] | pest or weed control at 70 g/ha [5] [%] | pest or weed control at 140 g/ha [5] [%] | pest or weed control at 35 g/ha [6] [%] | pest or weed control at 70 g/ha [6] [%] | pest or weed control at 140 g/ha [6] [%] | pest or weed control at 35 g/ha [7] [%] | pest or weed control at 70 g/ha [7] [%] | other results
COC(=O)c1nc(-c2ccc3nsnc3c2F)cc(N)c1Cl [Compound 14] | 45 to 59 | 60 to 74 | 75 to 84 | 0 to 29 | 0 to 29 | 0 to 29 | 0 to 29 | 0 to 29 | 0 to 29 | 60 to 74 | 85 to 94 | 95 to 100 | 0 to 29 | 0 to 29 | 0 to 29 | 0 to 29 | 0 to 29 | 0 to 29 | 0 to 29 | 0 to 29 | pest or weed control at 140 g/ha [7]: 0 to 29%; pest or weed control at 35 g/ha [8]: 0 to 29%; pest or weed control at 70 g/ha [8]: 0 to 29%; pest or weed control at 140 g/ha [8]: 0 to 29%; pest or weed control at 35 g/ha [9]: 0 to 29%; pest or weed control at 70 g/ha [9]: 0 to 29%; pest or weed control at 140 g/ha [9]: 0 to 29%; pest or weed control at 35 g/ha [10]: 30 to 44%; pest or weed control at 70 g/ha [10]: 30 to 44%; pest or weed control at 140 g/ha [10]: 45 to 59%; pest or weed control at 35 g/ha [11]: 0 to 29%; pest or weed control at 70 g/ha [11]: 0 to 29%; pest or weed control at 140 g/ha [11]: 30 to 44%; pest or weed control at 35 g/ha [12]: 0 to 29%; pest or weed control at 70 g/ha [12]: 0 to 29%; pest or weed control at 140 g/ha [12]: 0 to 29%
COC(=O)c1nc(-c2ccc3nonc3c2Cl)cc(N)c1Cl [Compound 18] | 75 to 84 | 85 to 94 | 95 to 100 | 0 to 29 | 0 to 29 | 0 to 29 | 0 to 29 | 0 to 29 | 0 to 29 | 0 to 29 | 0 to 29 | 30 to 44 | 0 to 29 | 0 to 29 | 30 to 44 | 0 to 29 | 0 to 29 | 30 to 44 | 0 to 29 | 0 to 29 | pest or weed control at 140 g/ha [7]: 0 to 29%; pest or weed control at 35 g/ha [8]: 60 to 74%; pest or weed control at 70 g/ha [8]: 75 to 84%; pest or weed control at 140 g/ha [8]: 75 to 84%; pest or weed control at 35 g/ha [9]: 0 to 29%; pest or weed control at 70 g/ha [9]: 0 to 29%; pest or weed control at 140 g/ha [9]: 0 to 29%; pest or weed control at 35 g/ha [10]: 95 to 100%; pest or weed control at 70 g/ha [10]: 95 to 100%; pest or weed control at 140 g/ha [10]: 95 to 100%; pest or weed control at 35 g/ha [11]: 0 to 29%; pest or weed control at 70 g/ha [11]: 30 to 44%; pest or weed control at 140 g/ha [11]: 60 to 74%; pest or weed control at 35 g/ha [12]: 0 to 29%; pest or weed control at 70 g/ha [12]: 0 to 29%; pest or weed control at 140 g/ha [12]: 0 to 29%
